Patent US20050142067A1, “Zintrodes, multitrodes and uses thereof” (priority 2003, published 2005)
Entries after “also recorded” stand apart in the source; their conditions may differ. Where two headings read alike, the source gives them in different places.

Tests used:
holoCA = holoCA (Homo sapiens, UniProt P00918); experiment: Binding of fluorescent reporter to holoCA; conditions: order of magnitude in words
Experimental: The measurement is based on a literature method (44, 51). Aliquots of a 1 μM solution of the CA protein are mixed with several concentrations of DPSA, ranging from 1 nM to 10 μM. After 30 minutes of incubation, the fluorescence emission spectrum is measured with excitation at 365 nm and emission at 400-700 nm. Taking the intensity at 560 nm, which is the emission max of an apoCA-DPSA conjugate, at the highest concentration aliquot to represent 99% fractional saturation, and 1% at the lowest concentration aliquot, the fractional saturation is plotted as a function of the DPSA concentration on a logarithmic scale, and the data is fit to a single binding isotherm, e.g. fraction bound=KD/(1+KD) using Kaleidagraph (Synergy Software), or a similar program.
Because of the nature of the sulfonamide binding as a fourth ligand to the active site, DPSA binds as a 1:1 complex at realistic aliquot concentrations. If the fractional saturation is not near 1.0 at higher DPSA concentration because the DPSA binds more weakly to the variant, the curvature of the isotherm will not reach the peak intensity.

CA-Zn (holoCA) = CA-Zn (holoCA) (Homo sapiens, UniProt P00918); experiment: Screening of fluorescent reporters with CA and zinc (fluorescence intensity)
Experimental: (§1) Stock solutions of the fluorescent reporter were prepared in alcohol and diluted 1000-fold in the final measuring cuvette. Carbonic anhydrase protein (CA) was “apo-ized” as per a standard procedure (50). Zinc was added to a solution of the CA in the presence of the reporter and the change in fluorescence intensity and wavelength of the reporter were measured on a Spex DM-1B fluorescence spectrophotometer using He—Cd laser excitation.

[1] = Spectral characteristics of reporters for CA-based zinc biosensor; type: physicochemical
Experimental: as §1

[2] = Leakage of reporter through microdialysis membrane; type: physicochemical; conditions: microdialysis chamber (sock), HEPES external medium
Experimental: A solution of DPSA was placed in the “sock” and the fluorescence of DPSA inside the dialysis chamber and in the external HEPES buffer solution was measured (FIG. 4A). The chamber was then filled with 10 μM apoCA and the external solution with […] HEPES buffer and 10 μM free zinc (FIG. 4B). Since the microdialysis membrane is impermeable to apoCA, any zinc that passes through the membrane is then trapped inside upon binding to apoCA. […] For example, if free zinc in the biological medium is 2 nM, then 0.90 nM zinc will be trapped within the “sock.”
However, DNSA “leaks out” of the membrane. DNSA reporter was covalently bound to amino-CPG beads using a 12 C or a 14 C tether and placed into the microdialysis membrane or “sock”. […] The DNSA-CPG bead system comprises a “molecular tether” means of entrapment (FIG. 7).

[3] = Fluorescence response to zinc of dye in micropolymer spots on glass slides; conditions: dye in polymer on glass slide, HEPES pH ˜7.4, 500 μM Zn^2+
Experimental: A proprietary micropolymer was obtained from Gary Kiefer of DOW. Two fluorescence sensors were mixed individually with the micropolymer. One was TFLZN which has a Kd of 10 μM for binding zinc and which is strongly hydrophilic. The other was ZP1, which is more lipophilic, binds zinc with a Kd of 0.5 nM, and is very bright with a quantum yield of 0.9. After mixing, the two solutions were spotted onto acid-cleaned glass slides in spots of 2.5 and 10.0 μL and allowed to cure overnight.
To evaluate the coatings, one microliter of HEPES (50 mM, pH ˜7.4) was put onto one spot on the polymer/probe coatings and a second spot with one microliter of the same HEPES plus 1 microliter of ZnSO4 (final [Zn^2+], 500 μM) was put next to the first spot. Images of the both spots were captured using the exact same camera settings for both spots. […] When the actual fluorescent intensity of the spots was measured using Photoshop, it was observed that the zinc-added spot was from 4-5-fold brighter that the HEPES spot. […] The change in fluorescence was not timed, but in this microscope-measuring system, the change appeared essentially instantaneously, i.e., within the few seconds it took to put the slide back in place, re-focus the microscope, and capture the second image. […] Furthermore, washing the spots with pure HEPES again lowered the fluorescence back to essentially the pre-zinc levels. […]

[4] = read-out: Kd for binding zinc; cited from earlier work
[5] = pZn meter calibration with metal buffer (ZP1); type: binding; conditions: 50 μM bicine metal buffer, [ZP1]=100 nM; read-out: KD, fluorescence intensity midpoint
Experimental: In calibrating the pZn meter using a metal buffer to control free zinc (FIG. 16A), the [ZP1] is <<than the effective [Zn2+ free] because the metal buffer, 50 μM bicine, can supply a large total number of Zn ions, while keeping the concentration of zinc ions fixed. Thus, in this calibration, the fluorescence intensity midpoint is approximately equal to the KD, 0.5 nM where [ZP1]=100 nM. In a second calibration, a ZP1 concentration of 20 nM of zinc, as ZnSO4, is used (FIG. 16B). Because no metal buffer is used and because the ZP1 concentration is much higher than the zinc concentration, this is a stoichiometric or “percent occupancy” titiration in which the fluorescence intensity is simply proportional to the molar ratio, [Zn]:[ZP1}.

[6] = cited from earlier work
rabbit brain = conditions: 1 mM in dialysis fluid, 10 minutes infusion, anesthetized rabbits, dorsal hippocampus
Experimental: The microdialysis probes were aimed at the dorsal hippocampus in two acutely prepared rabbits, as described above, and the rabbits were anesthetized with isofluorane.
This caused spermine NONOate to release NO*, some of which presumably passed through the dialysis membrane and into the brain as a reverse dialysis procedure. The infusion lasted 10 minutes.

| binding to holoCA (holoCA) | increase of fluorescent yield upon binding to holo-CA (CA-Zn (holoCA)) | Abs max [1] | Emm max [1] | Molar ε [1] | SMILES | leakage out of microdialysis membrane [2] | fluorescence of zinc-added spot versus HEPES spot [3] | Kd [4] | quantum yield ([6]; after zinc binding) | quantum yield ([6]; before zinc binding) | other results |
| --- | --- | --- | --- | --- | --- | --- | --- | --- | --- | --- | --- |
| low micromole | 6 fold | 332 nm | 560 nm | 4.7 × 10^3 cm^−1M^−1 | CN(C)c1cccc2c(S(N)(=O)=O)cccc12 [DNSA, dansylamide] | leaks out | – | – | – | – | – |
| low picomole | 20 fold | 355 nm | 605 nm | 2.2 × 10^4 cm^−1M^−1 | CN(C)c1ccc(-c2cnc(-c3ccc(S(N)(=O)=O)cc3)o2)cc1 [DPSA, dapoxylsulfonamide] | membrane impermeable; also recorded: does not leak out | – | – | – | – | fluorescence intensity (CA-Zn (holoCA); 1 μM DPSA, alone or with the named CA): 70 units; absorption λmax [1]: 340 nm |
| – | – | – | – | – | COc1cc(NS(=O)(=O)c2ccc(C(=O)O)cc2)c2nc(C)ccc2c1 [TFLZN] | – | ~15 fold | 10000 nM | – | – | – |
| – | – | – | – | – | O=C(O)c1ccccc1-c1c2cc(Cl)c(=O)c(CN(Cc3ccccn3)Cc3ccccn3)c-2oc2c(CN(Cc3ccccn3)Cc3ccccn3)c(O)c(Cl)cc12 [ZP1, 9-(o-carboxyphenyl)-2,7-dichloro-4,5-bis[bis(2-pyridylmethyl)-aminomethyl]-6-hydroxy-3-xanthanone] | – | 4-5 fold | 0.5 nM | about 0.87 | about 0.39 | Kd [5]: ~0.5 nM; quantum yield ([6]; condition not stated): 0.9; excitation wavelength maximum ([6]; without zinc): 515 nm; excitation wavelength maximum ([6]; zinc bound): 507 nm |
| – | – | – | – | – | O=C(O)c1ccccc1-c1c2cc(Cl)c(=O)cc-2oc2c(CNc3ccccc3CN(Cc3ccccn3)Cc3ccccn3)c(O)ccc12 [ZP4, 9-(o-carboxyphenyl)-2-chloro-5-[2-{bis(2-pyridylmethyl)aminomethyl}-N-methylaniline]-6-hydroxy-3-xanthanone] | – | – | – | about 0.34 | about 0.06 | pKa value ([6]; relative to Zinpyr 1 and Zinpyr 2): lower |
| – | – | – | – | – | NCCCNCCCCN(CCCN)/[N+]([O-])=N/O [spermine NONOate] | – | – | – | – | – | release of free zinc into dialysate (rabbit brain): vigorous release of free zinc |
